According to patent US20240217952A1, “TREATMENT OF GRAFT-VERSUS-HOST DISEASE WITH INHIBITORS OF BET FAMILY BDII BROMODOMAIN” (POSEIDON INNOVATION 1, INC., priority 2022, published 2024):

Legend:
[1] = test system: IL-17A, IL-17F and IL-21 T-cell dependent cytokine secretion; test: Th17 Panel in Human PBMCs (anti-CD3 stimulation, Luminex); type: cell-based; details: anti-CD3 coated plates, 48 hours post stimulation, supernatant, FIG. 1
Procedure: High binding plates were coated with anti-CD3 (Clone UCHT-1, 0.2 ug/well) or its isotype control mIgG1 (0.2 ug/well) and incubated overnight at 4° C. Cryopreserved human PBMCs were seeded into U-bottom 96-well plates (2.4×10^5 cells/well) with 228 ul per well of culture medium (RPMI 1640, 10% HI-FBS, 1% P/S, 2 mM L-glutamine). Cells were incubated at 37° C., 5% CO2 for 1 hour prior to the addition of test compounds. Test compounds were solubilized in DMSO and further diluted to 20× with cell culture medium. Test compounds were added to the PBMCs in volumes of 12 ul in triplicate and incubated at 1 hour at 37° C., 5% CO2.
After the 1 hour incubation, 200 ul of cells ([…]) treated with test compounds or controls were transferred to the prepared anti-CD3 coated plates and incubated at 48 hours at 37° C., 5% CO2. Consequently, the final concentrations of assay controls were 1 ug/mL anti-CD3 (agonist) or 1 ug/mL mIgG1 isotype control, and 0.1% DMSO (vehicle control). At the end of the incubation period, plates were centrifuged at 200×g for 10 minutes. Cell culture supernatants were collected and stored at −80° C. until needed for analysis. Cytokine levels in each sample were determine using Luminex methodology per the manufacturer's protocol using the Human Th17 Magnetic Bead Panel from Milipore Sigma (HTH17MAG-14K).
Human PBMCs were treated with compound I-1 (Example 1) or vehicle control and then subjected to T cell activation mediated by anti-CD3 coated plates. 48 hours-post stimulation, IL-17A, IL-17F and IL-21 supernatant levels were quantified.

[2] = test system: imiquimod-induced psoriasis; test: IMQ induced psoriasis mouse model; type: in vivo
Procedure: Except for the control group, all other groups received a daily topical dose of 60 mg of 5% commercially available IMQ cream on the shaved back for 7 consecutive days. The same amount of Vaseline was applied to the same areas of the animals in the negative control group.
Vehicle and DF-6129 were dosed daily (po) for 8 days, from Day −1 to Day 7. Dosing time: 1 hour prior to IMQ application.
The Psoriasis Area and Severity Index (PASI) scoring system was used to evaluate the severity of skin inflammation of the mouse model. Erythema, scaling, and skin thickness was scored independently from 0-4 as (daily scoring) as below:
Animals were euthanized 4 h post last dosing on day 7 (3 h after applying with imiquimod cream). Whole Blood was collected via cardiac puncture from all group animals. Serum samples were separated by centrifugation at 4° C. at 8000 g for 5 minutes, total 70 samples. All serum samples were stored at −80° C. for IL-17 analysis.
Animals were euthanized 4 h post last dosing on day 7 (3 h after applying with imiquimod cream) and back skin was be collected. The skin tissues were divided into two parts. One half was flash frozen and stored at −80° C. for PCR analysis (IL-17A, IL-17F, IL-22 and IL-23), the other half was fixed in 10% formalin for HE staining and scoring.
All statistical analysis were conducted, and the level of significance was set at P<0.05. The group means and standard deviation were calculated for all measurement parameters as study designed. One-way ANOVA comparisons among the groups was performed with software SPSS 16.0.

[3] = test system: MCP-1 secretion from LPS-stimulated human PBMCs; test: PBMC MCP-1 HTRF Assay; type: cell-based; details: FIG. 2
Procedure: The cryopreserved PBMC cells were thawed in a 37° C. water bath immediately after taking out from liquid nitrogen storage. A sterile pipette was used to transfer the content to sterile […] centrifuge tube containing […] of complete growth medium (Gibico 1640) and centrifuge at 300×g for 10 min. Supernatant was discarded, and cell pellet was resuspended in 10 mL of complete growth media in a sterile 15 mL tube. The cells were rested for 1 h at 37° C. (1×10^6 cells/mL). The cells were spinned down at 300×g for 10 minutes after 1 h. Supernatant was discard, and cell pellet was resuspended in complete growth medium, the cells number and viability were measured by AO/PI staining. In a 384-well white plate, PBMCs at 25k cells/well (15 μl per well) were seeded with Gibico 1640 medium. The compound stock was serial diluted into 10 mM concentrations by 3-fold dilution. […]
For MCP-1 HTRF, 2.5 μl/well MCP-1 donor antibody and […] MCP-1 acceptor antibody were added into 384 well plate, following by centrifuging at 190×g for 1 min and incubating at room temperature for 2 h. The plate was read on the Envision.
The cryopreserved PBMC cells were thawed in a 37° C. water bath immediately after taking out from liquid nitrogen storage. […] Supernatant was discard, and cell pellet was resuspended in complete growth medium, the cells number and viability were measured by AO/PI staining. […]

cGVHD = cGVHD models (LP/J→C57BL/6 sclerodermatous; C57BL/6→B10.BR); type: in vivo, mouse; details: e.g. 3 mg/kg
Procedure: Compound I-2 is dosed at various doses, e.g., 3 mg/kg, and decreases incidence and/or […] onset of Graft vs. Host Disease (GvHD) in the LP/J-C57BL/6 model of sclerodermatous cGVHD and/or the C57BL/6→B10.BR cGVHD model that develops multiorgan system disease including bronchiolar obliterans (BO).

[4] = test system: Graft vs. Host Disease (GvHD); test: GvHD, combination with adoptive transfer of expanded Tregs; type: in vivo, mouse; details: in combination with adoptive transfer of expanded Tregs; e.g. 3 mg/kg
Text: It has been shown that BET inhibitors can be combined with Treg expansion therapy for treatment of diseases involving inflammatory response. Lethally irradiated (8.5 Gy) BALB/c mice received 5.5×10^6 TCD B6-CD45.1 BM cells and spleen cells from expanded (TrED) or unexpanded (TrUD) B6-FoxP3RFP donor mice adjusted to contain either […] or 1×10^6 total T cells (Copsel et al. 2019).

[5] = test system: Graft vs. Host Disease (GvHD); test: GvHD in irradiated female BALB/c mice engrafted with WBCs from female C57BL/6 mice; type: in vivo, mouse
[6] = test system: Graft vs. Host Disease (GvHD); test: GvHD, combination with CTLA4-Ig/Abatacept; type: in vivo, mouse; details: in combination with CTLA4-Ig; e.g. 3 mg/kg
Text: It has been shown that in vivo infusion of recombinant, soluble CTLA4 fused with Ig heavy chains, as a surrogate ligand used to block CD28/CTLA4 T-cell costimulation, could prevent efficient T-cell activation and thereby reduce graft-versus-host disease (GVHD). Lethally irradiated B10.BR recipients of major histocompatibility complex disparate C57BL/6 donor grafts received intraperitoneal injections CTLA4-Ig in various doses and schedules beginning on day −1 or day 0 of bone marrow transplantation (BMT) (see Blazer et al. 1994).

GVHD = details: allogeneic animals compared with allogeneic control recipients; FIG. 3; cited from earlier work
acute GVHD = details: oral gavage three times weekly, versus vehicle; FIG. 4; cited from earlier work

Cn1ccn(-c2ccc(-c3cc(F)cc(-c4cccc(N5CCN(C(C)(C)C)CC5)c4)c3O)cc2Cl)c1=O [Compound I-1, 1-(3″-(4-(tert-butyl)piperazin-1-yl)-3-chloro-5′-fluoro-2′-hydroxy-[1,1′:3′,1″- terphenyl]-4-yl)-3-methyl-1,3-dihydro-2H-imidazol-2-one]
IL21 T-cell dependent cytokine secretion [1]: inhibited
IL-17A T-cell dependent cytokine secretion [1]: inhibited
IL-17F T-cell dependent cytokine secretion [1]: inhibited
mRNA levels of IL-17A from the back skin ([2]; 10 mg/kg, compared with vehicle treatment alone, FIG. 7A): significantly reduced
mRNA levels of IL-22 from the back skin ([2]; 10 mg/kg, compared with vehicle treatment alone, FIG. 7B): significantly reduced
mRNA levels of IL-23 from the back skin ([2]; 10 mg/kg, compared with vehicle treatment alone, FIG. 7C): significantly reduced
serum IL-17 levels ([2]; compared to vehicle treatment alone, ELISA, day 7, FIG. 6): significantly reduced
total psoriasis (PASI) score ([2]; daily dosing po, compared to vehicle treatment, FIG. 5A): significantly reduced
erythema (PASI) ([2]; daily dosing po, compared to vehicle treatment, FIG. 5B): significant decreases
scaling (PASI) ([2]; daily dosing po, compared to vehicle treatment, FIG. 5C): significant decreases
skin thickening (PASI) ([2]; daily dosing po, compared to vehicle treatment, FIG. 5D): significant decreases
MCP secretion from LPS-stimulated human PBMCs [3]: inhibited

Cc1cc(-c2ccc(-n3ccn(C)c3=O)c(Cl)c2)c(O)c(-c2cccc(N3CCN(C(C)(C)C)CC3)c2)n1 [Compound I-2, 1-(4-(2-(3-(4-(tert-butyl)piperazin-1-yl)phenyl)-3-hydroxy-6-methylpyridin-4-yl)-2-chlorophenyl)-3-methyl-1,3-dihydro-2H-imidazol-2-one]
incidence and/or onset of GvHD (cGVHD) (cGVHD; in combination with Ruxolitinib): decreases incidence and/or delays onset
incidence and/or onset of GvHD (cGVHD) (cGVHD; monotherapy): decreases incidence and/or delayes onset
incidence and/or onset of GvHD [4]: decreases incidence and/or delays of onset
incidence and/or onset of GvHD ([5]; in combination with Ruxolitinib, compared to Ruxolitinib treatment alone, e.g. 3 mg/kg): decreases incidence and/or delays of onset
incidence and/or onset of GvHD ([5]; monotherapy, various doses e.g. 3 mg/kg): decreases incidence and/or delays onset
incidence and/or onset of GvHD [6]: decreases incidence and/or delays onset

COc1cc2c(cc1-c1c(C)noc1C)ncc1[nH]c(=O)n([C@H](C)c3ccccn3)c12 [I-BET151]
GVHD severity (clinical score) (GVHD): significantly reduced
survival rates (GVHD): improved

Cc1noc(C)c1-c1cnc2c(-c3ccc(C(=O)O)cc3)cn([C@@H](C)c3ccccn3)c2c1 [PLX51107]
survival (acute GVHD): significantly improved
